# Patent US20070116781A1, “Hydrogen Cyanamide Pesticide Formulations” (priority 2005, published 2007)
# Columns and labels:
# reniform nematodes = assay: Nematicidal activity in covered pots of naturally infested silt loam, soybean planted after 12 days; type: in vivo, Rotylenchulus reniformus; conditions: C2H5CO2H 250 mg/kg soil
# Experimental: (§1) In this study, the soil was naturally infested with four species of nematodes, two of which were deleterious and two beneficial, and observations were made of both the nematode survival and the growth of the soybean plants.
# (§2) Stock solutions of hydrogen cyanamide at 1.0% by weight and propionic acid at 5.0% by weight, both in water, were prepared, the hydrogen cyanamide from a phosphate-buffered 50% aqueous solution. Planting pots measuring 10 cm in diameter, each containing 1 kg of soil, were used. The soil was silt loam from a cotton field, pH 6.2, CEC<10 meq/100 g soil, organic matter<1.0%. The treatment chemicals were combined in various dilutions such that 100 mL of the combined dilutions contained the desired amount of each chemical for each test. The combined dilutions were then applied to the soil surface in each pot, at 100 mL of combined dilution per pot. The dilutions were selected to achieve target application rates expressed in milligrams of the treatment chemical per kilogram of soil, with 1 milligram of treatment chemical per kilogram of soil being approximately equal to 2 kilograms of the chemical per hectare of soil or 2 pounds of the chemical per acre of soil.
# (§3) Immediately after the treatment chemicals were applied, each pot was covered by a thick (1.5 mil), clear, low-density polyethylene bag. After twelve days, the bags were removed and soil samples were taken from each pot for nematological analysis by the salad bowl technique of Rodriguez-Kabana, R., and M. H. Pope, Nematropica, 11: 175-186 (1981). The results of these analyses are listed in Table I as pre-plant test results. The results for the two deleterious nematodes are also shown as plots of the number of nematodes vs. the hydrogen cyanamide application rate in FIGS. 1 and 2.
# (§4) After the polyethylene bags were removed, each pot was planted with Hutcheson soybean seeds at 5 seeds per pot, and the seeds were allowed to germinate and the plants to grow for 45 days. The resulting plants were then removed from the pots, the root systems were washed, and the number of plants in each pot was determined. The weights of both fresh shoots and roots were also determined as well as the shoot height and the relative health of the root system, using a subjective index. Soil samples were also collected, and the soil and roots were incubated to determine nematode populations. Treatments were arranged in randomized complete block design with seven replications per treatment, and statistical evaluation of the data was performed with analyses of variance (ANOVA) and standard regression procedures. Fischer's Least Significant Difference at p 0.05 was calculated when appropriate. The results of these tests are listed as final test results in Tables II, III, and IV, with nematode populations in the soil listed in Table II, the nematode populations in the root systems in Table III, and the plant and root parameters of the soybean shoots in Table IV.
# microbivorous nematodes = assay: Effect on beneficial nematodes in covered pots of silt loam; type: in vivo; conditions: microbivorous nematodes, in vivo, pH 6.2
# Experimental: as §1, §2, §3, §4
# Hutcheson soybean = assay: Crop (soybean) conditions after soil treatment; type: in vivo; conditions: 57 d after treatment, C2H5CO2H 250 mg/kg soil
# Experimental: as §4, with “In this study,” for “After”, “soil was naturally infested with four species of nematodes, two of which” for “polyethylene bags”, “deleterious and two beneficial, and observations were made of both the nematode survival” for “removed, each pot was planted with Hutcheson soybean seeds at 5 seeds per pot,”, “growth of the soybean plants. Stock solutions of hydrogen cyanamide at 1.0% by weight and propionic acid at 5.0% by weight, both in water,” for “seeds”, “prepared,” for “allowed to germinate and”, “hydrogen cyanamide from a phosphate-buffered 50% aqueous solution. Planting pots measuring 10 cm in diameter, each containing 1 kg of soil, were used. […]” for “plants to grow for 45 days.”
# sicklepod = assay: Herbicidal activity, phosphate-free cyanamide and propionic acid, post-emergence, uncovered pots; type: in vivo, Senna obtusifolia
# From the text: (§5) The procedures in this example differed from those of Example 2, however, by the use of hydrogen cyanamide crystals free of phosphate ion to prepare the aqueous hydrogen cyanamide solution, by the use of post-emergence application, and by the omission of any covering of the pots during any part of the test. Observations were made for total weed growth, and individual observations were also made for yellow nutsedge, crabgrass, sicklepod, and momingglory. Stock solutions of hydrogen cyanamide at 1.25% by weight and propionic acid at 5.0% by weight, both in water, were prepared as before, except that the hydrogen cyanamide solution, as noted above, was prepared by dissolving hydrogen cyanamide crystals in water in the absence of phosphate ion. […] The weeds were allowed to grow for three weeks before the treatment chemicals were applied. […] Data analyses were performed in the same manner as Examples 1 and 2. Table IX lists the results in weeds per pot for all weeds, Table X for yellow nutsedge, Table XI for crabgrass, Table XII for sicklepod, and Table XIII for morningglory, all both with propionic acid alone at various application rates and with […]
# morningglory = assay: as above; type: in vivo, Ipomoea spp.
# From the text: as §5
# [1] = 6 d after treatment, C2H5CO2H 100 mg/kg soil
# [2] = 6 d after treatment, C2H5CO2H 200 mg/kg soil
# [3] = 6 d after treatment, C2H5CO2H 300 mg/kg soil
# [4] = 6 d after treatment, C2H5CO2H 400 mg/kg soil
# [5] = 6 d after treatment, C2H5CO2H 500 mg/kg soil
# [6] = 13 d after treatment, C2H5CO2H 100 mg/kg soil
# [7] = 13 d after treatment, C2H5CO2H 200 mg/kg soil
# [8] = 13 d after treatment, C2H5CO2H 300 mg/kg soil
# [9] = 13 d after treatment, C2H5CO2H 400 mg/kg soil
# [10] = 13 d after treatment, C2H5CO2H 500 mg/kg soil
# [11] = 20 d after treatment, C2H5CO2H 100 mg/kg soil
# [12] = 20 d after treatment, C2H5CO2H 200 mg/kg soil
# [13] = 20 d after treatment, C2H5CO2H 300 mg/kg soil
# [14] = 20 d after treatment, C2H5CO2H 400 mg/kg soil
# [15] = 20 d after treatment, C2H5CO2H 500 mg/kg soil
compound,measurement,setting,value
"CCC(=O)O [C2H5CO2H, propionic acid]",Surviving Nematodes: Reniform,"reniform nematodes; 12 d after treatment, pre-plant",280 per 100 mL of soil
same,Surviving Nematodes: Reniform,"reniform nematodes; 57 d after treatment, 45 d after planting",328 per 100 mL of soil
same,Surviving Nematodes in Root System: Reniform,reniform nematodes; 57 d after treatment,64.7 Per Pot
same,Surviving Nematodes: Microbivorous,microbivorous nematodes; 12 d,66 per 100 mL of soil
same,Surviving Nematodes in Root System: Microbivorous,microbivorous nematodes; 57 d,96 Per Pot
same,Surviving Nematodes: Microbivorous,microbivorous nematodes; 57 d,45 per 100 mL of soil
same,Number of Plants/Pot,Hutcheson soybean; 5 seeds/pot,3.7
same,Fresh Shoot Weight,Hutcheson soybean,19.6 g
same,Root Condition Index,Hutcheson soybean,2.1
same,Shoot Height,Hutcheson soybean,26.9 cm
same,Weeds Per Pot: Sicklepod,sicklepod; [1],3.1
same,Weeds Per Pot: Sicklepod,sicklepod; [2],1.3
same,Weeds Per Pot: Sicklepod,sicklepod; [3],0.9
same,Weeds Per Pot: Sicklepod,sicklepod; [4],0.4
same,Weeds Per Pot: Sicklepod,sicklepod; [5],0.7
same,Weeds Per Pot: Sicklepod,sicklepod; [6],3.6
same,Weeds Per Pot: Sicklepod,sicklepod; [7],2.4
same,Weeds Per Pot: Sicklepod,sicklepod; [8],1.4
same,Weeds Per Pot: Sicklepod,sicklepod; [9],1.6
same,Weeds Per Pot: Sicklepod,sicklepod; [10],2
same,Weeds Per Pot: Sicklepod,sicklepod; [11],3.1
same,Weeds Per Pot: Sicklepod,sicklepod; [12],2.3
same,Weeds Per Pot: Sicklepod,sicklepod; [13],1.9
same,Weeds Per Pot: Sicklepod,sicklepod; [14],1.9
same,Weeds Per Pot: Sicklepod,sicklepod; [15],2.1
same,Weeds Per Pot: Morningglory,morningglory; [1],7
same,Weeds Per Pot: Morningglory,morningglory; [2],2.1
same,Weeds Per Pot: Morningglory,morningglory; [3],0
same,Weeds Per Pot: Morningglory,morningglory; [4],0
same,Weeds Per Pot: Morningglory,morningglory; [5],0
same,Weeds Per Pot: Morningglory,morningglory; [6],7.3
same,Weeds Per Pot: Morningglory,morningglory; [7],2.1
same,Weeds Per Pot: Morningglory,morningglory; [8],0
same,Weeds Per Pot: Morningglory,morningglory; [9],0
same,Weeds Per Pot: Morningglory,morningglory; [10],0
same,Weeds Per Pot: Morningglory,morningglory; [11],7.3
same,Weeds Per Pot: Morningglory,morningglory; [12],2.1
same,Weeds Per Pot: Morningglory,morningglory; [13],0
same,Weeds Per Pot: Morningglory,morningglory; [14],0
same,Weeds Per Pot: Morningglory,morningglory; [15],0
